Entries after “also recorded” stand apart in the source; their conditions may differ. Like-named read-outs stand apart in the source and are kept apart here.
Legend:
MDR1 expression [1] = assay: Inhibition of cytotoxic drug-induced MDR1 expression by cytoplasmic calcium antagonists and calmodulin inhibitors; format: cell-based, human; settings: H9; 200 μM TMB-8
tumor [2] = settings: cited from earlier work
tumor [3] = settings: nude mice, cited from earlier work
MDR1 expression [4] = assay: Inhibition of AraC-induced MDR1 expression by phospholipase C inhibitors (RT-PCR); format: cell-based, human; settings: up to 100 μg/mL D609
Experimental: The inhibitor was added 45 min. prior to the addition of Ara C. Negative control cultures were incubated as above without the addition of either AraC or U73122.
The specificity of phospholipase C-targeted inhibition of MDR1 induction by cytotoxic drugs was determined in a comparative experiment using a known inhibitor of […] phospholipase C (PC-PLC).

PC-PLC = settings: Wiegmann et al., 1994; cited from earlier work
PKC = settings: in words; cited from earlier work
MDR1 expression [5] = assay: Inhibition of cytotoxic drug-induced MDR1 expression by protein kinase inhibitors (cDNA-PCR)
Experimental: (§1) Cells were plated in 6-well Falcon tissue culture plates at 3,300 cells per well, and incubated in the appropriate concentrations of drugs. Each of the protein kinase inhibitors to be tested were added at the appropriate final concentration 45 minutes prior to MDR1 induction by the addition of Ara-C or TPA, with the exception of herbimycin A, which was added 12 hours prior to Ara-C or TPA, and tyrphostins A25 and B46, which were each added 16 hours prior to MDR1 induction by the addition of Ara-C or TPA. Cells were incubated overnight (TPA) or for 10 hours (Ara-C) at 37° C./ 5% CO2 after the addition of the MDR1 inducing agents before harvesting for cDNA-PCR analysis.
In addition, the analysis of certain drugs imposed added requirements. For experiments using calphostin C, cells were incubated under direct white light illumination. For experiments using D,L-threo-sphingosine, the cell culture medium was pre-treated with the appropriate concentration of the drug for one hour at 37° C. with continuous gentle mixing. After this pretreatment, cells were resuspended in media supplemented with drug and incubated for 45 minutes as described above.
To further evaluate the capacity of protein kinase inhibitors to suppress MDR1 induction by cytotoxic drugs and PKC agonists, H-9 human T-cell leukemia cells were used in cDNA-PCR assays to examine induced MDR1 mRNA expression levels in the presence of protein kinase inhibitors.

protein kinases = settings: Pelosin et al., 1990; cited from earlier work
[6] = test system: MDR1 expression (P-glycoprotein); assay: MDR1/P-glycoprotein expression in mouse hematopoietic cell lines; format: cell-based
Experimental: (§2) PBL were treated with 1 ng/mL TPA; H9 and K562 cells with 10 ng/mL TPA; KG1a and KG1 cells with 100 ng/mL TPA and the other cell lines with 10 ng/mL TPA.
Since PBL comprise a heterogeneous population of many different subtypes, a series of leukemia-derived clonal cells lines were tested for changes in P-glycoprotein expression after treatment with TPA.

[7] = test system: MDR1 expression (P-glycoprotein); assay: MDR1/P-glycoprotein expression in human cells treated with TPA, DOG, other agents (Rh123 accumulation, UIC2 staining, cDNA-PCR); format: cell-based
Experimental: KG1 cell line was maintained in Iscove's modified Dulbecco medium with 20% fetal calf serum (FCS) and 2 mM L-glutamine, 100 units/mL penicillin and 100 μg/mL streptomycin (GIBCO Laboratories, Grand Island, N.Y.).
as §2
Mouse IgG2a isotype control antibody was obtained from Sigma. For staining of PBL with UIC2 mAb or isotype control, 10^6 cells were stained at 4° C. with 10 μg of the antibody for 30 minutes and, after two washes, stained for 30 minutes with 10 μg of FITC-conjugated goat anti-mouse IgG2a antibody (Fisher Scientific, Fairlawn, N.J.), diluted 1:2 with PBS plus 2% FCS. Cells were then washed twice with ice-cold PBS plus 2% FCS, stained with PI and kept on ice until analysis. Essentially the same protocol was used for staining of other cell types except that 2 μg of the secondary antibody were used per 10^6 cells. In some experiments, phycoerythrine (PE)-conjugated goat anti-mouse IgG2a was used as the secondary antibody; no PI was added in such cases.
(§3) (Commercially-available kits (for example, from GIBCO/BRL, Gaithersburg, Md.) can be advantageously modified for making cDNA using random hexamers.) PCR is then performed using the following primers: […]
(§4) (where β2 M represents β2 microglobulin). PCR was performed for β2 M experiments under a regime consisting of 1 cycle comprising denaturation at 94° C. for 3 minutes, primer annealing at 60° C. for 30 seconds, and primer extension at 72° C. for 1 minute, followed by 19 cycles comprising denaturation at 94° C. for 30 seconds, primer annealing at 60° C. for 30 seconds, and primer extension at 72° C. for 1 minute, followed by a final cycle comprising denaturation at 94° C. for 30 seconds, primer annealing at 60° C. for 30 seconds, and primer extension at 72° C. for 5 minutes. MDR1 cDNA sequences were amplified using the identical protocol as for β2 M, but extending the amplification from 19 cycles to 25 cycles. In addition, the cDNA-PCR amplification protocol contained the following modifications: (i) Taq DNA polymerase was added to the PCR mixtures after initial heating of the samples to 94° C. (ii) The yield of the β2 -microglobulin-specific band, obtained after 22-28 cycles of PCR, was used as the primary criterion for equalizing the starting amounts of the cDNA templates in different preparations, in order to account for differential RNA degradation in cells subjected to different types of treatment. ^32 P-labeled PCR products were detected by autoradiography.
A functional assay was used to detect changes in P-glycoprotein activity in human PBL treated with different agents that induce lymphoid differentiation or activation, based on flow cytometric analysis of cellular accumulation of Rh123, which is a P-glycoprotein-transported fluorescent mitochondrial dye. In this assay, cells expressing little or no P-glycoprotein stain brightly with Rh123, whereas cells with higher levels of P-glycoprotein activity appear Rh123-dull. […] Since the best-known cellular effect of TPA is the stimulation of PKC, DOG (a cell-permeable diacylglycerol and a physiological stimulant of PKC) was also tested to determine its effects on Rh123 accumulation in PBL.

MDR1 expression [8] = settings: cited from earlier work
MDR1 expression [9] = assay: Inhibition of TPA- or DOG-induced MDR1 expression; format: cell-based, human; settings: staurosporine 30 nM
Experimental: as §2, §1

MRP expression = assay: Inhibition of MRP mRNA expression in H-9 cells (cDNA-PCR); format: cell-based, human; settings: 100 nM
Experimental: Cells were plated in 6-well Falcon tissue culture plates at 3,300 cells per well, and incubated in the appropriate concentrations of drugs. Each of the protein kinase inhibitors to be tested were added at their appropriate final concentrations, and the cells then incubated for 10 hours at 37° C. under an atmosphere of 5% CO2.
PCR was performed using the following primers: […]
(where β2 M represents β2 microglobulin). PCR was performed for β2 M experiments under a regime consisting of 1 cycle comprising denaturation at 94° C. for 3 minutes, primer annealing at 60° C. for 30 seconds, and primer extension at 72° C. for 1 minute, followed by 19 cycles comprising denaturation at 94° C. for 30 seconds, primer annealing at 60° C. for 30 seconds, and primer extension at 72° C. for 1 minute, followed by a final cycle comprising denaturation at 94° C. for 30 seconds, primer annealing at 60° C. for 30 seconds, and primer extension at 72° C. for 5 minutes.
H-9 cells were used to analyze the effect of various protein kinase inhibitors on the expression of the multidrug resistance associated protein MRP (Grant et al., ibid.).

K562 cells = test system: K562 cells
Experimental: FIG. 6A. Growth inhibition by vinblastine in untreated and Ara-C (ARA)- or Adriamycin (ADR)-treated cells. Cells were treated as in FIG. 3C and grown in the absence of drugs for six weeks. Vinblastine inhibition assay was carried out for 10 days.
FIG. 6B. Growth inhibition by vinblastine in untreated cells and Rh123-dull and Rh123-bright populations of Ara-C treated cells. […] One week after sorting, vinblastine inhibition assay was carried out for 7 days.
Cells were plated in duplicate in 96-well microtiter plates at 3,000 cells per well, and allowed to grow in increasing concentrations of different drugs.
(§5) Also assayed was whether drug-induced MDR1 expression was maintained after cytotoxic drug treatment. […] At different times, MDR1 expression in the surviving cells was analyzed by dye efflux and immunofluorescence labeling with UIC2 (FIG. 3C) or by cDNA-PCR (FIG. 4E).

[10] = test system: MDR1 expression (P-glycoprotein); assay: Induction of MDR1 expression by cytotoxic drugs (dye efflux, UIC2, cDNA-PCR); format: cell-based, human
Experimental: as §3, §4
In particular PKC is activated by treatment with Ara-C. Therefore, experiments were performed to test whether Ara-C, which is not transported by P-glycoprotein, would have any effect on P-glycoprotein function in K562 leukemia cells.
as §5

Molecule: 8-(dimethylamino)octyl-3,4,5-trimethoxybenzoate hydrochloride [TMB-8]
- inhibition of AraC-induced MDR1 gene expression (MDR1 expression [1]): completely abrogate the ability of AraC to induce MDR1 gene expression

Molecule: CCN(CC)CCN1C(=O)c2c(c3c4cccc(Cl)c4n([C@@H]4O[C@H](CO)[C@@H](OC)[C@H](O)[C@H]4O)c3c3[nH]c4c(Cl)cccc4c23)C1=O [BMY 27557, 8-N-(diethylaminoethyl) rebeccamycin]
- optimal total i.p. dose (tumor [2]; nine injections at 12 mg/kg/injection): 108 mg/kg
- optimal single i.p. dose (tumor [2]; single dose): 64 mg/kg

Molecule: CO[C@@H]1[C@H](N(C)C(=O)c2ccccc2)C[C@H]2O[C@]1(C)n1c3ccccc3c3c4c(c5c6ccccc6n2c5c31)C(=O)NC4 [CGP 41 251]
- dose showing anti-tumor effect relative to MTD (tumor [3]; Meyer et al., 1989): anti-tumor effect at one-tenth of their maximum tolerated doses

Molecule: S=C(S)OC1CC2CC1C1CCCC21 (stereo not shown) [D609, tricyclodecan-9-yl-xanthogenate potassium]
- inhibition of AraC-induced expression of MDR1 (MDR1 expression [4]): without an effect; also recorded: incapable of inhibiting AraC-induced expression of MDR1
- concentration known to inhibit PC-PLC (PC-PLC): 100 µg/mL

Molecule: N=C(N)NCCNS(=O)(=O)c1cccc2cnccc12 [HA1004]
- PKC inhibition (PKC): inactive against PKC
- inhibition of MDR1 induction by cytotoxic drugs (MDR1 expression [5]): totally ineffective

Molecule: CC1CN(S(=O)(=O)c2cccc3cnccc23)CCN1 (stereo not shown) [Iso-H7]
- inhibition of Ara-C induced MDR1 expression (MDR1 expression [5]; Iso-H7, H-9 cells): No significant inhibition
- weaker effect on protein kinases than H7 (protein kinases): 10 fold

Molecule: CCCCCCCCCCCCCC(=O)O[C@@H]1[C@@H](C)[C@@]2(O)[C@@H](C=C(CO)C[C@]3(O)C(=O)C(C)=C[C@@H]23)[C@@H]2C(C)(C)[C@]12OC(C)=O [TPA, 12-o-tetradecanoylphorbol-13-acetate]
- P-glycoprotein expression after exposure ([6]; and LBRM 33 lymphoma): large increase in their P-glycoprotein expression
- increase of MDR1 expression after treatment ([7]; EJ bladder carcinoma cells): increase of MDR1 expression
- induction of MDR1 mRNA and P-glycoprotein ([7]; H9 cells): efficiently induced readily detectable levels of MDR1 expression
- P-glycoprotein expression after exposure ([7]; KG1 and KG1a cells (P-glycoprotein positive)): large increase in their P-glycoprotein expression
- increase of MDR1 expression after treatment ([7]; MCF-7 breast carcinoma cells): increase of MDR1 expression
- levels of P-glycoprotein on the cell surface (UIC2) ([7]; human PBL): markedly increased the levels of P-glycoprotein on the cell surface
- MDR1 gene expression ([7]; normal human PBL and leukemia/solid tumor cell lines): increase MDR1 gene expression

Molecule: O=c1c(O)c(-c2ccc(O)c(O)c2)oc2cc(O)cc(O)c12 [quercetin]
- effect on anti-tumor effect of cisplatin (tumor [3]; i.p. 20 mg/kg, Grunicke et al.): potentiate the anti-tumor effect of cisplatin
- PKC inhibition (PKC): inhibition of PKC activity
- effect on arsenite-induced increase in MDR1 expression (MDR1 expression [8]): prevent an increase in MDR1 expression

Molecule: CN[C@@H]1C[C@H]2O[C@@](C)([C@@H]1OC)n1c3ccccc3c3c4c(c5c6ccccc6n2c5c31)C(=O)NC4 [staurosporine]
- P-glycoprotein expression, compound alone ([6]; mouse EL4 and LBRM 33 (P-glycoprotein positive)): significant increase in P-glycoprotein expression
- inhibition of DOG (diacylglycerol)-induced MDR1 expression (MDR1 expression [9]; H9 cells / P-glycoprotein-negative cells): completely abolished MDR1 induction; also recorded: prevent MDR1 induction
- inhibition of TPA-induced MDR1 expression (MDR1 expression [9]; H9 cells): completely abolished MDR1 induction; also recorded: completely inhibited TPA-induced MDR1 expression; also recorded: prevent MDR1 induction
- MRP expression (MRP expression): capable of inhibiting MRP expression; also recorded: strongly inhibited
- prevention of MDR1 induction by chemotherapeutic drugs (MDR1 expression [5]): prevent MDR1 induction
- inhibition of MDR1 induction by cytotoxic drugs (MDR1 expression [5]; concentration not stated): capable of inhibiting MDR1 induction by cytotoxic drugs
- P-glycoprotein expression, compound alone ([7]; KG1, KG1a (P-glycoprotein positive)): significant increase in P-glycoprotein expression
- induction of MDR1 expression, compound alone ([7]; P-glycoprotein-negative H9 cells): did not induce MDR1 expression
- P-glycoprotein expression ([7]; some P-glycoprotein-positive cell lines (human; mouse lines also used)): significantly increased P-glycoprotein expression

Molecule: CC[C@]1(O)C[C@@H]2CN(CCc3c([nH]c4ccccc34)[C@@](C(=O)OC)(c3cc4c(cc3OC)N(C)[C@H]3[C@@](O)(C(=O)OC)[C@H](OC(C)=O)[C@]5(CC)C=CCN6CC[C@]43[C@@H]65)C2)C1 [vinblastine]
- increase in resistance (K562 cells): 2-3 fold
- increase in the ID10 value (K562 cells): 2-3 fold
- MDR1 induction [10]: MDR1 induction, both at the mRNA and at the protein levels, was observed
- MDR1 mRNA expression [10]: induce MDR1 mRNA expression
- Rh123 or DiOC2(3) efflux by treated cells [10]: 3-10%

From patent US6171786A, “Methods for preventing multidrug resistance in cancer cells” (priority 1996, dated 2001)
